Experimental data from patent US20240109853A1 (Shanghai Yao Yuan Biotechnology Co., Ltd., priority 2020, published 2024).
Where two headings read alike, the source gives them in different places.

Columns and labels:
ALPK1 = ALPK1 (Homo sapiens (Human), UniProt Q96QP1); experiment: ALPK1 in vitro kinase assay (HTRF of TIFA phosphorylation); format: biochemical
[1] = tested on: ALPK1-dependent NFκB reporter gene activation in HEK293 cells stably expressing an NF-kB reporter (G9 cells); experiment: NFκB gene reporter alkaline phosphatase assay; format: cell-based; details: read-out: NFkB assay IC50
Outline: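 HEK293 G9 cells stably carrying an NF-kB alkaline phosphatase reporter were seeded at 10,000 cells/well in Freestyle 293 medium and attached overnight. They were pretreated with serially diluted compound for 30 min, then stimulated with D-glycero-D-manno-6-fluoro-heptose-1β-S-ADP. Reporter phosphatase was read with pNPP; IC50 from logistic fit.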

ALPK1, sequence (Q96QP1 whole entry): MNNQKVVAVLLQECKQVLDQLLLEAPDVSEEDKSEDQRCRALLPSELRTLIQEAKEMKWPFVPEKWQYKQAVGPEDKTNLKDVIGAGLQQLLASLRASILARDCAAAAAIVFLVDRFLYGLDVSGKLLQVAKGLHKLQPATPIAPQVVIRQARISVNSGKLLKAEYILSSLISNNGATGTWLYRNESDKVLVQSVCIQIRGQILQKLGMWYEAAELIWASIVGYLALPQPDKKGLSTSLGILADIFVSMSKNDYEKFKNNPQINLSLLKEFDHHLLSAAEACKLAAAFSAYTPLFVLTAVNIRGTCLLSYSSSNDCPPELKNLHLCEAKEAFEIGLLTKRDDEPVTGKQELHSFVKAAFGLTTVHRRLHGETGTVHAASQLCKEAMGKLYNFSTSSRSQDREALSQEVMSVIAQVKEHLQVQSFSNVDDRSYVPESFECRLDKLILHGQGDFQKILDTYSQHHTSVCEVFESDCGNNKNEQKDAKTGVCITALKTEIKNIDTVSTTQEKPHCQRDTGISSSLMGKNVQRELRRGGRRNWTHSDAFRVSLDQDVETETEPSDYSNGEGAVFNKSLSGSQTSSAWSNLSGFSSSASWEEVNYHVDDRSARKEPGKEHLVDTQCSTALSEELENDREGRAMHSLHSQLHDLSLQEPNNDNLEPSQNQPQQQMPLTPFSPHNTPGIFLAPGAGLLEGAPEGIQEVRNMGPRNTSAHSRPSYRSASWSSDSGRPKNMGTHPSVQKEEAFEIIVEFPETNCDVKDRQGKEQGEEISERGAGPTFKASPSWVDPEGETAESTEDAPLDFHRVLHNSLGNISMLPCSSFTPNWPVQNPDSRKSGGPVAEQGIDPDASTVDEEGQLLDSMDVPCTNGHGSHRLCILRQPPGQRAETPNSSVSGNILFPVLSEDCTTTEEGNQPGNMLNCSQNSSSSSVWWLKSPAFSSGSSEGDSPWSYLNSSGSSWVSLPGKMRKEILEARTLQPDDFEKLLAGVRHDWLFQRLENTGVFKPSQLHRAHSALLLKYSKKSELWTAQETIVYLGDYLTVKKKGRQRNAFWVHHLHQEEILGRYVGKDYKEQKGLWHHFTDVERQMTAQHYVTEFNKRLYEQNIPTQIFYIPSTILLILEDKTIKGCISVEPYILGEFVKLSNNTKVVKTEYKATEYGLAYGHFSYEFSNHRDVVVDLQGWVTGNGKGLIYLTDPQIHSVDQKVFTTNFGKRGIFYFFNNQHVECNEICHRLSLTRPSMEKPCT

SMILES | IC50 (ALPK1) [µM] | IC50 ([1]; Homo sapiens, HEK293) [µM] | IC50 [1] [µM]
C#CC(C)(c1ccc(Br)cc1)c1csc(NC(=O)NCCN2CCOCC2)n1 (stereo not shown) [Example A155, 1-(4-(2-(4-bromophenyl)but-3-yn-2-yl)thiazol-2-yl)-3-(2-morpholinoethyl)urea] | 0.03 | 0.9 | 
C#CC(C)(c1ccc(Br)cc1)c1csc(NC(=O)NCC(O)CO)n1 (stereo not shown) [Example A156, 1-(4-(2-(4-bromophenyl)but-3-yn-2-yl)thiazol-2-yl)-3-(2,3-dihydroxypropyl)urea] | 0.022 | 0.38 | 
C#CC(CC)(c1ccc(Br)cc1)c1csc(NC(=O)NCCO)n1 (stereo not shown) [Example A157, 1-(4-(3-(4-bromophenyl)pent-1-yn-3-yl)thiazol-2-yl)-3-(2-hydroxyethyl)urea] | 0.022 | 1.36 | 
O=C(NCCO)Nc1nc(C2(c3ccc(Br)cc3)CCC2)cs1 [Example A158, 1-(4-(1-(4-bromophenyl)cyclobutyl)thiazol-2-yl)-3-(2-hydroxyethyl)urea] | 0.067 | 2.86 | 
C#CC(C)(c1ccc(Br)cc1)c1csc(NC(=O)NCCO)n1 (stereo not shown) [Example A159, 1-(4-(2-(4-bromophenyl)but-3-yn-2-yl)thiazol-2-yl)-3-(4-hydroxyethyl)urea] | 0.048 | 0.49 | 
C#C[C@@](C)(c1ccc(Br)cc1)c1csc(NC(=O)NCCO)n1 [Example A160, (S)-1-(4-(2-(4-bromophenyl)but-3-yn-2-yl)thiazol-2-yl)-3-(2-hydroxyethyl)urea] | 0.01 | 0.17 | 
C#C[C@](C)(c1ccc(Br)cc1)c1csc(NC(=O)NCCO)n1 [Example A161, (R)-1-(4-(2-(4-bromophenyl)but-3-yn-2-yl)thiazol-2-yl)-3-(2-hydroxyethyl)urea] | 0.068 | 0.55 | 
C#CC(C)(c1ccc(Br)cc1)c1csc(NC(N)=O)n1 (stereo not shown) [Example A162, 1-(4-(2-(4-bromophenyl)but-3-yn-2-yl)thiazol-2-yl)urea] | 0.038 | 0.18 | 
C#CC(C)(c1ccc(Br)cc1)c1csc(NC(=O)N2CC(CO)C2)n1 (stereo not shown) [Example A165, N-(4-(2-(4-bromophenyl)but-3-yn-2-yl)thiazol-2-yl)-3-(hydroxymethyl)azetidine-1-carboxamide] | 0.138 | 0.73 | 
C#C[C@](C)(c1ccc(Br)cc1)c1csc(NC(=O)N2CC(CO)C2)n1 [Example A166, (R)-N-(4-(2-(4-bromophenyl)but-3-yn-2-yl)thiazol-2-yl)-3-(hydroxymethyl)azetidine-1-carboxamide] | 0.025 | 5.71 | 
C#C[C@@](C)(c1ccc(Br)cc1)c1csc(NC(=O)N2CC(CO)C2)n1 [Example A167, (S)-N-(4-(2-(4-bromophenyl)but-3-yn-2-yl)thiazol-2-yl)-3-(hydroxymethyl)azetidine-1-carboxamide] | 0.007 | 0.74 | 
C#CC(C)(c1ccc(OC)cc1)c1csc(NC(=O)NCCO)n1 (stereo not shown) [Example A168, 1-(2-hydroxyethyl)-3-(4-(2-(4-methoxyphenyl)but-3-yn-2-yl)thiazol-2-yl)urea] | 0.027 | 0.4 | 
C#C[C@](C)(c1ccc(OC)cc1)c1csc(NC(=O)NCCO)n1 [Example A169, (R)-1-(2-hydroxyethyl)-3-(4-(2-(4-methoxyphenyl)but-3-yn-2-yl)thiazol-2-yl)urea] | 0.023 | 1.67 | 
C#C[C@@](C)(c1ccc(OC)cc1)c1csc(NC(=O)NCCO)n1 [Example A170, (S)-1-(2-hydroxyethyl)-3-(4-(2-(4-methoxyphenyl)but-3-yn-2-yl)thiazol-2-yl)urea] | 0.008 | 0.46 | 
C#CC(C)(c1ccc(OC)cc1)c1csc(NC(N)=O)n1 (stereo not shown) [Example A171, 1-(4-(2-(4-methoxyphenyl)but-3-yn-2-yl)thiazol-2-yl)urea] | 0.016 | 0.73 | 
C#C[C@](C)(c1ccc(OC)cc1)c1csc(NC(N)=O)n1 [Example A172, (R)-1-(4-(2-(4-methoxyphenyl)but-3-yn-2-yl)thiazol-2-yl)urea] | 0.036 | 1.28 | 
C#C[C@@](C)(c1ccc(OC)cc1)c1csc(NC(N)=O)n1 [Example A173, (S)-1-(4-(2-(4-methoxyphenyl)but-3-yn-2-yl)thiazol-2-yl)urea] | 0.008 | 0.58 | 
C#CC(C)(c1ccc(Cl)cc1)c1csc(NC(=O)NCCO)n1 (stereo not shown) [Example A174, 1-(4-(2-(4-chlorophenyl)but-3-yn-2-yl)thiazol-2-yl)-3-(2-hydroxyethyl)urea] | 0.034 | 0.31 | 

SMILES | IC50 (ALPK1) [µM] | IC50 ([1]; Homo sapiens, HEK293) [µM] | IC50 [1] [µM]
CC(C)(c1ccc(Br)cc1)c1csc(NC(=O)NCCN2CCNCC2)n1 [Example A177, 1-(4-(2-(4-bromophenyl)propan-2-yl)thiazol-2-yl)-3-(2-(piperazin-1-yl)ethyl)urea] | 0.249 | 1.66 | 
CC(C)(c1ccc(Cl)c(F)c1)c1csc(NC(=O)NCc2cnc(N3CCNCC3)nc2)n1 [Example A179, 1-(4-(2-(4-chloro-3-fluorophenyl)propan-2-yl)thiazol-2-yl)-3-((2-(piperazin-1-yl)pyrimidin-5-yl)methyl)urea] | 0.095 | 1.36 | 
CC(C)(c1ccc(Br)cc1)c1csc(NC(=O)NCc2ccnc(N3CCNCC3)c2)n1 [Example A181, 1-(4-(2-(4-bromophenyl)propan-2-yl)thiazol-2-yl)-3-((2-(piperazin-1-yl)pyridin-4-yl)methyl)urea] | 0.131 | 1.52 | 
CC(C)(c1ccc(Br)cc1)c1csc(NC(=O)NCc2cccc(N3CCNCC3)n2)n1 [Example A182, 1-(4-(2-(4-bromophenyl)propan-2-yl)thiazol-2-yl)-3-((6-(piperazin-1-yl)pyridin-2-yl)methyl)urea] | 0.163 | 4.3 | 
COc1ccc(C(C)(C)c2csc(NC(=O)NCc3ccc(NCCN)cc3)n2)cc1 [Example A183, 1-(4-((2-aminoethyl)amino)ben-yzl)-3-(4-(2-(4-methoxyphenyl)propan-2-yl)thiazol-2-yl)urea] | 0.052 | 2.31 | 
COc1ccc(C(C)(C)c2csc(NC(=O)NCc3ccc(N4CCC(N)C4)nc3)n2)cc1 (stereo not shown) [Example A186, 1-((6-(3-aminopyrrolidin-1-yl)pyridin-3-yl)methyl)-3-(4-(2-(4-methoxyphenyl)propan-2-yl)thiazol-2-yl)urea] | 0.019 |  | 1.55
COc1ccc(C(C)(C)c2csc(NC(=O)NCc3cnc(N4CCC(N)C4)nc3)n2)cc1 (stereo not shown) [Example A187, 1-((2-(3-aminopyrrolidin-1-yl)pyrimidin-5-yl)methyl)-3-(4-(2-(4-methoxyphenyl)propan-2-yl)thiazol-2-yl)urea] | 0.007 | 0.7 | 
CC(C)(c1ccc(Br)cc1)c1csc(NC(=O)NCc2ccc(N3CCC(N)C3)nc2)n1 (stereo not shown) [Example A189, 1-((6-(3-aminopyrrolidin-1-yl)pyridin-3-yl)methyl)-3-(4-(2-(4-bromophenyl)propan-2-yl)thiazol-2-yl)urea] | 0.041 | 2.31 | 
COc1ccc(C(C)(C)c2csc(NC(=O)NCC3CC(N)C3)n2)cc1 (stereo not shown) [Example A190, 1-((3-aminocyclobutyl)methyl)-3-(4-(2-(4-methoxyphenyl)propan-2-yl)thiazol-2-yl)urea] | 0.458 | 3.02 | 
NC1CCN(c2ccc(CNC(=O)Nc3nc(C4(c5ccc(Br)cc5)CCCC4)cs3)cc2)CC1 [Example A191, 1-(4-(4-aminopiperidin-1-yl)benzyl)-3-(4-(1-(4-bromophenyl)cyclopent-yl)thiazol-2-yl)urea] | 0.08 | 6.91 | 
O=C(NCc1cc(F)c(N2CCNCC2)c(F)c1)Nc1nc(C2(c3ccc(Br)cc3)CCCC2)cs1 [Example A192, 1-(4-(1-(4-bromophenyl)cyclopent-yl)thiazol-2-yl)-3-(3,5-difluoro-4-(piperazin-1-yl)benzyl)urea] | 0.106 | 4.34 | 
CC1CN(c2ccc(CNC(=O)Nc3nc(C(C)(C)c4ccc(Br)cc4)cs3)cc2)CCN1 (stereo not shown) [Example A194, 1-(4-(2-(4-bromophenyl)propan-2-yl)thiazol-2-yl)-3-(4-(3-methylpiperazin-1-yl)benzyl)urea] | 0.172 | 3.71 | 
CC(C)(c1ccc(Br)cc1)c1csc(NC(=O)NCc2ccc(N3CCNC(=O)C3)cc2)n1 [Example A195, 1-(4-(2-(4-bromophenyl)propan-2-yl)thiazol-2-yl)-3-(4-(3-oxopiperazin-1-yl)benzyl)urea] | 0.132 | 9.94 | 
CC(C)(c1ccc(Br)c(F)c1)c1csc(NC(=O)NCc2cnc(N3CCNCC3)nc2)n1 [Example A196, 1-(4-(2-(4-bromo-3-fluorophenyl)propan-2-yl)thiazol-2-yl)-3-((2-(piperazin-1-yl)pyrimidin-5-yl)methyl)urea] | 0.076 | 3.34 | 
CC(C)(c1ccc(Br)cc1)c1csc(NC(=O)NCc2ccc(NCCN)c(F)c2)n1 [Example A198, 1-(4-((2-aminoethyl)amino)-3-fluorobenzyl)-3-(4-(2-(4-bromophenyl)propan-2-yl)thiazol-2-yl)urea] | 0.018 | 1.32 | 
COc1ccc(C(C)(C)c2csc(NC(=O)NCc3ccc(N4CCC(N)C4)cn3)n2)cc1 (stereo not shown) [Example A200, 1-((5-(3-aminopyrrolidin-1-yl)pyridin-2-yl)methyl)-3-(4-(2-(4-methoxyphenyl)propan-2-yl)thiazol-2-yl)urea] | 0.043 | 0.52 | 
COc1ccc(C(C)(C)c2csc(NC(=O)NCc3cc(F)c(N4CCC(N)C4)c(F)c3)n2)cc1 (stereo not shown) [Example A201, 1-(4-(3-aminopyrrolidin-1-yl)-3,5-difluorobenzyl)-3-(4-(2-(4-methoxyphenyl)propan-2-yl)thiazol-2-yl)urea] | 0.025 | 0.53 | 
